# Data reported in patent US8883782B2, “Spiro-tetracyclic ring compounds as beta-secretase modulators and methods of use” (Amgen Inc., priority 2010, dated 2014).
# Read-outs that look alike come from different tables or passages of the source.
# Legend:
# [1] = molecular target: Beta Secretase enzyme (BACE) (Homo sapiens, UniProt P56817); assay: In vitro enzymatic BACE FRET (fluorescence resonance energy transfer) assay; type: biochemical; conditions: average IC50, enzyme assay; read-out: BACE 1 FRET assay
# How it was run: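 Enzyme activity was measured at pH 4.2 (0.05 M acetate, 10% DMSO final, 100 uM genapol) by cleavage of a 50 nM quenched fluorogenic peptide. After one hour, Tris was added to neutralise the pH and fluorescence was recorded.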
# [2] = test system: Aβ40 in conditioned medium of cells stably expressing Amyloid Precursor Protein (APP); assay: In vitro BACE cell-based assay (Aβ40 in conditioned medium, sandwich ELISA); conditions: read-out: HEK cell assay
# How it was run: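 Secreted Aβ40 is captured with pAb40 and detected with biotinylated 6E10, read by europium time-resolved fluorescence. IC50 comes from percent inhibition versus concentration.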
# [3] = Homo sapiens, HEK293, average IC50, HEK cells
# [4] = Homo sapiens, HEK293, average IC50
# Beta Secretase enzyme (BACE), sequence (P56817 46-501, species assumed): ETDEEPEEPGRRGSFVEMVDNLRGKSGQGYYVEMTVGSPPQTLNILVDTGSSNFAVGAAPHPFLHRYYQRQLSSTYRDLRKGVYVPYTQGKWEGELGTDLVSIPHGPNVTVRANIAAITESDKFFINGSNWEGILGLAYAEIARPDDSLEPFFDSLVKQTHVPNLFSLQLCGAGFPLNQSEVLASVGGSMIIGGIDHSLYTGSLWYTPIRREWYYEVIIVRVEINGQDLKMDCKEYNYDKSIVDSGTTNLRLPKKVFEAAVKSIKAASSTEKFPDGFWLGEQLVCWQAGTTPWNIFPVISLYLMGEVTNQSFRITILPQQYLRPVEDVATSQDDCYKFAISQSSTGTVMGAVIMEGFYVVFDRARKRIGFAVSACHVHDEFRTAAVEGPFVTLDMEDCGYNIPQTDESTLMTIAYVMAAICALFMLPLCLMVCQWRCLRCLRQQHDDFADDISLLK
SMILES,IC50 [1] [nM],"IC50 [2, 3] [nM]","IC50 [2, 4] [nM]","IC50 ([2]; average IC50, HEK cells) [nM]"
"Cn1cc(-c2cc(F)c3c(c2)[C@]2(COC(N)=N2)c2cc(-c4c(F)ccnc4F)ccc2O3)cn1 [Example 859, (4S)-7′-(2,4-difluoro-3-pyridinyl)-4′-fluoro-2′-(1-methyl-1H-pyrazol-4-yl)spiro[1,3-oxazole-4,9′-xanthen]-2-amine]",0.5,11,,
"NC1=N[C@@]2(CS1)c1cc(-c3c(F)ccnc3F)ccc1Oc1cnc(-c3ccnc(F)c3)cc12 [Example 1023, (5S)-7-(2,4-difluoro-3-pyridinyl)-3-(2-fluoro-4-pyridinyl)spiro[chromeno[2,3-c]pyridine-5,4′-[1,3]thiazol]-2′-amine]",0.4,,18,
"CC1(C#Cc2ccc3c(c2)[C@]2(COC(N)=N2)c2cc(-c4cncnc4)c(F)cc2O3)COC1 [Example 498, (4R)-3′-fluoro-7′-((3-methyl-3-oxetanyl)ethynyl)-2′-(5-pyrimidinyl)spiro[1,3-oxazole-4,9′-xanthen]-2-amine]",3.8,19.1,,
"NC1=N[C@@]2(CO1)c1cc(-c3cccnc3F)ccc1Oc1cnc(-c3ccnc(C(F)(F)F)c3)cc12 [Example 545, (5S)-7-(2-fluoro-3-pyridinyl)-3-(2-(trifluoromethyl)-4-pyridinyl)spiro[chromeno[2,3-c]pyridine-5,4′-[1,3]oxazol]-2′-amine]",5.6,406,,
"NC1=N[C@@]2(CC1(F)F)c1cc(-c3cccnc3)ccc1Oc1ncc(-c3cccnc3)cc12 [Example 112, (5S)-4′,4′-difluoro-3,7-di-3-pyridinyl-3′,4′-dihydrospiro[chromeno[2,3-b]pyridine-5,2′-pyrrol]-5′-amine]",63.2,,2160,
"COc1ccnc(F)c1-c1ccc2c(c1)[C@@]1(COC(N)=N1)c1cc(-c3ccnc(F)c3)ncc1O2 [Example 681, (5S)-7-(2-fluoro-4-methoxy-3-pyridinyl)-3-(2-fluoro-4-pyridinyl)spiro[chromeno[2,3-c]pyridine-5,4′-[1,3]oxazol]-2′-amine]",0.5,12,,
"N#Cc1ncccc1-c1ccc2c(c1)[C@@]1(COC(N)=N1)c1cc(C3=CCOCC3)ncc1O2 [Example 389, 3-((5S)-2′-amino-3-(3,6-dihydro-2H-pyran-4-yl)spiro[chromeno[2,3-c]pyridine-5,4′-[1,3]oxazol]-7-yl)-2-pyridinecarbonitrile]",11.1,68.4,,
"COc1ccc2c(c1)[C@@]1(COC(N)=N1)c1cc(C3(F)CCOCC3)cc(F)c1O2 [Example 939, (4S)-4′-fluoro-2′-(4-fluorotetrahydro-2H-pyran-4-yl)-7′-methoxyspiro[1,3-oxazole-4,9′-xanthen]-2-amine]",1710,3560,,
"Cc1ccnc(F)c1-c1ccc2c(c1)[C@@]1(COC(N)=N1)c1cc(N3CCOC(C)(C)C3)cnc1O2 [Example 482, (5S)-3-(2,2-dimethyl-4-morpholinyl)-7-(2-fluoro-4-methyl-3-pyridinyl)spiro[chromeno[2,3-b]pyridine-5,4′-[1,3]oxazol]-2′-amine]",3.4,14.4,,
"CC1(C#Cc2cnc3c(c2)[C@]2(CSC(N)=N2)c2cc(-c4cnccc4F)ccc2O3)COC1 [Example 727, (5S)-7-(4-fluoro-3-pyridinyl)-3-((3-methyl-3-oxetanyl)ethynyl)spiro[chromeno[2,3-b]pyridine-5,4′-[1,3]thiazol]-2′-amine]",4.1,,128,
"NC1=N[C@@]2(CO1)c1cc(-c3cc(Cl)cnc3F)ccc1Oc1cnc(C3=CCOCC3)cc12 [Example 361, (5S)-7-(5-chloro-2-fluoro-3-pyridinyl)-3-(3,6-dihydro-2H-pyran-4-yl)spiro[chromeno[2,3-c]pyridine-5,4′-[1,3]oxazol]-2′-amine]",0.5,,6.1,
"CC(C)N(C)c1cc2c(cn1)Oc1ccc(-c3cccnc3)cc1[C@@]21COC(N)=N1 [Example 435, (5S)-N~3~-methyl-N~3~-(1-methylethyl)-7-(3-pyridinyl)spiro[chromeno[2,3-c]pyridine-5,4′-[1,3]oxazole]-2′,3-diamine]",5.6,29.6,,
"C[C@H]1COCCN1c1cc(F)c2c(c1)[C@]1(CSC(N)=N1)c1cc(-c3cccnc3F)ccc1O2 [Example 1082, (4S)-4′-fluoro-7′-(2-fluoro-3-pyridinyl)-2′-((3S)-3-methyl-4-morpholinyl)spiro[1,3-thiazole-4,9′-xanthen]-2-amine]",0.3,,4,
"CC1(C)CC(c2cc(F)c3c(c2)[C@]2(COC(N)=N2)c2cc(-c4cccnc4F)ccc2O3)=CC(=O)O1 [Example 804, 4-((4S)-2-amino-4′-fluoro-7′-(2-fluoro-3-pyridinyl)spiro[1,3-oxazole-4,9′-xanthen]-2′-yl)-6,6-dimethyl-5,6-dihydro-2H-pyran-2-one]",0.8,,33,
"Cc1cc(-c2ccc3c(c2)[C@@]2(COC(N)=N2)c2cc(-c4cccnc4)ncc2O3)cnc1F [Example 230, (5S)-7-(6-fluoro-5-methyl-3-pyridinyl)-3-(3-pyridinyl)spiro[chromeno[2,3-c]pyridine-5,4′-[1,3]oxazol]-2′-amine]",8.1,,36.3,
"CC#Cc1cncc(-c2ccc3c(c2)[C@@]2(CSC(N)=N2)c2cc(C4=CCOCC4)cnc2O3)c1 [Example 772, (5S)-3-(3,6-dihydro-2H-pyran-4-yl)-7-(5-(1-propyn-1-yl)-3-pyridinyl)spiro[chromeno[2,3-b]pyridine-5,4′-[1,3]thiazol]-2′-amine]",0.5,,2,
"CC1(C)CC(c2cc3c(c(F)n2)Oc2ccc(-c4cccnc4F)cc2[C@]32CSC(N)=N2)=CCO1 [Example 1036, (5R)-3-(2,2-dimethyl-3,6-dihydro-2H-pyran-4-yl)-1-fluoro-7-(2-fluoro-3-pyridinyl)spiro[chromeno[2,3-c]pyridine-5,4′-[1,3]thiazol]-2′-amine]",2,,120,
"CC1(C)C[C@@H](c2cnc3c(c2)[C@]2(COC(N)=N2)c2cc(-c4cncc(Cl)c4)ccc2O3)CCO1 [Example 476, (5S)-7-(5-chloro-3-pyridinyl)-3-((4S)-2,2-dimethyltetrahydro-2H-pyran-4-yl)spiro[chromeno[2,3-b]pyridine-5,4′-[1,3]oxazol]-2′-amine]",1.3,,,4.9
"NC1=N[C@@]2(CO1)c1cc(-c3cccnc3F)ccc1Oc1c(F)cc(OCCF)cc12 [Example 1043, (4S)-4′-fluoro-2′-(2-fluoroethoxy)-7′-(2-fluoro-3-pyridinyl)spiro[1,3-oxazole-4,9′-xanthen]-2-amine]",1,,57,
"CC(C)(C#N)COc1cc(F)c2c(c1)[C@]1(COC(N)=N1)c1cc(-c3cncnc3)c(F)cc1O2 [Example 667, 3-(((4S)-2-amino-4′,6′-difluoro-7′-(5-pyrimidinyl)spiro[1,3-oxazole-4,9′-xanthen]-2′-yl)oxy)-2,2-dimethylpropanenitrile]",0.6,16,,
"NC1=N[C@@]2(CO1)c1cc(OCc3cccc(Br)c3)ccc1Oc1ncc(-c3cccnc3)cc12 [Example 979, (5S)-7-((3-bromobenzyl)oxy)-3-(3-pyridinyl)spiro[chromeno[2,3-b]pyridine-5,4′-[1,3]oxazol]-2′-amine]",0.6,,23,
"CC(C)(C#N)COc1cc(F)c2c(c1)[C@]1(COC(N)=N1)c1cc(-c3cncc(F)c3)ccc1O2 [Example 272, 3-(((4S)-2-amino-4′-fluoro-7′-(5-fluoro-3-pyridinyl)spiro[1,3-oxazole-4,9′-xanthen]-2′-yl)oxy)-2,2-dimethylpropanenitrile]",0.5,,5.9,
"NC1=N[C@@]2(CO1)c1cc(-c3cncc(N4CCC(F)(F)C4)c3)ccc1Oc1cnc(Cl)cc12 [Example 427, (5S)-3-chloro-7-(5-(3,3-difluoro-1-pyrrolidinyl)-3-pyridinyl)spiro[chromeno[2,3-c]pyridine-5,4′-[1,3]oxazol]-2′-amine]",640,610,,
"Cn1cc(-c2cnc3c(c2)[C@]2(CSC(N)=N2)c2cc(-c4cccnc4F)ccc2O3)cn1 [Example 584, (5S)-7-(2-fluoro-3-pyridinyl)-3-(1-methyl-1H-pyrazol-4-yl)spiro[chromeno[2,3-b]pyridine-5,4′-[1,3]thiazol]-2′-amine]",2,15.9,,
"NC1=N[C@@]2(CO1)c1cc(-c3cccc(Cl)c3)ccc1Oc1ncc(C3=CCCOC3)cc12 [Example 173, (5S)-7-(3-chlorophenyl)-3-(5,6-dihydro-2H-pyran-3-yl)spiro[chromeno[2,3-b]pyridine-5,4′-[1,3]oxazol]-2′-amine]",0.6,,5,
"NC1=N[C@@]2(CO1)c1cc(OCc3cccc(C(F)(F)F)c3)ccc1Oc1ncc(-c3cccnc3)cc12 [Example 985, (5S)-3-(3-pyridinyl)-7-((3-(trifluoromethyl)benzyl)oxy)spiro[chromeno[2,3-b]pyridine-5,4′-[1,3]oxazol]-2′-amine]",68.3,,288,
"NC1=N[C@@]2(CO1)c1cc(-c3cccnc3F)ccc1Oc1c2cc(N2CCC(F)(F)CC2)nc1F [Example 698, (5S)-3-(4,4-difluoro-1-piperidinyl)-1-fluoro-7-(2-fluoro-3-pyridinyl)spiro[chromeno[2,3-c]pyridine-5,4′-[1,3]oxazol]-2′-amine]",0.3,6,,
"CC#Cc1cncc(-c2ccc3c(c2)[C@@]2(COC(N)=N2)c2cc(OCC(C)(C)C#N)cc(F)c2O3)c1 [Example 948, 3-(((4S)-2-amino-4′-fluoro-7′-(5-(1-propyn-1-yl)-3-pyridinyl)spiro[1,3-oxazole-4,9′-xanthen]-2′-yl)oxy)-2,2-dimethylpropanenitrile]",0.4,4,,
